Measurements from patent publication KR20200032170A, “편두통 및 군발성 두통의 치료를 위한 졸미트립탄의 치료적 농도를 신속하게 달성하는 방법” (조사노 파마 코포레이션, priority 2017, dated 2019).
Like-named read-outs stand apart in the source and are kept apart here. One block for each compound: values may come before it.

Tests used:
[1] = cited from earlier work
migraine (편두통) = conditions: cited from earlier work; for pain freedom at 2 h / pain relief at 2 h: lowest oral dose; for pain freedom: nasal zolmitriptan
Zolmitriptan pKa = type: physicochemical

Compound: CNCCc1c[nH]c2ccc(C[C@H]3COC(=O)N3)cc12 [N-데스메틸 졸미트립탄]
- metabolite concentration relative to zolmitriptan concentration ([1]; in vivo): 2/3

Compound: CNS(=O)(=O)CCc1ccc2[nH]cc(C3CCN(C)CC3)c2c1 [나라트립탄]
- pain freedom at 2 h (migraine (편두통)): 18%
- pain relief at 2 h (migraine (편두통)): 49%

- pKa (weak base) (Zolmitriptan pKa): 9.6
Compound: CN(C)CCc1c[nH]c2ccc(C[C@H]3COC(=O)N3)cc12 [졸미트립탄]
- pain freedom at 2 h (migraine (편두통)): 29%
- pain relief at 2 h (migraine (편두통)): 62%
- pain freedom (migraine (편두통); 1 h): ~10%
- pain freedom (migraine (편두통); 2 h): < 25%
- pain freedom (migraine (편두통); 4 h): < 40%
- efficacy and tolerability (in words) (migraine (편두통); placebo-controlled clinical trials): 효과적이고 우수한 내약성을 갖는 것으로 보여졌다
- Tmax ([1]; nasal administration): ~1.5 h

Compound: CNS(=O)(=O)Cc1ccc2[nH]cc(CCN(C)C)c2c1 [수마트립탄]
- onset of action (migraine (편두통); injected): ≤ 10 min
- Tmax ([1]; oral tablet): ~2 h
- oral bioavailability ([1]; oral, as succinate): ~15%
